In the supplement of paper PMC10290057:

What was measured:
[1] = tested on: HCT116; assay: efficacy (fitted maximal change in viability relative to DMSO control); higher = less cytotoxic (negative = loss of viability); settings: 48 h
[2] = tested on: HCT116; assay: AC50 cell viability (CellTiter-Glo); higher = less potent; settings: 48 h
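For AC50 cell viability (CellTiter-Glo) in this document: HCT116 colorectal carcinoma cells screened at five concentrations per compound, luminescent viability scaled between DMSO wells and empty wells on each plate, curves fitted per compound.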
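For efficacy (fitted maximal change in viability relative to DMSO control) in this document: Luminescence-based viability readout, five doses per compound, normalized against on-plate DMSO and empty-well controls, followed by dose-response curve fitting for every drug.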

SMILES: S=C1N\C=N/C2=C1[NH]C=N2 [6-mercaptopurine]
- efficacy [1]: -101%
- AC50 cell viability [2]: 1.66 µM

SMILES: CN[C@@H]1C[C@H]2O[C@@](C)([C@@H]1OC)n1c3ccccc3c3c4c(c5c6ccccc6n2c5c31)C(=O)N[C@H]4O [7-Hydroxystaurosporine]
- efficacy [1]: -92.5%
- AC50 cell viability [2]: 0.241 µM

SMILES: CC[C@@]1(O)C(=O)OCC/2=C1/C=C3\N(CC4=CC5=CC(=CC=C5N=C34)O)C2=O [10-hydroxycamptothecin]
- efficacy [1]: -79.9%
- AC50 cell viability [2]: 0.105 µM

SMILES: CCCCC(C)(C)[C@H](O)/C=C/[C@H]1[C@H](O)CC(=O)[C@@H]1C/C=C\CCCC(=O)O [16,16-dimethyl PGE2]
- efficacy [1]: -64.7%
- AC50 cell viability [2]: 20.9 µM

SMILES: C=CCNC1=C2CC(C)CC(OC)C(O)C(C)/C=C(\C)C(OC(N)=O)C(OC)/C=C/C=C(\C)C(=O)NC(=CC1=O)C2=O (stereo unspecified) [17-AAG (KOS953)]
- efficacy [1]: -60.5%
- AC50 cell viability [2]: 0.417 µM

SMILES: COC[C@H]1OC(=O)C2=COC3=C2[C@@]1(C)\C4=C(\[C@@H]5CC[C@H](O)[C@@]5(C)C[C@H]4OC(C)=O)C3=O [17-hydroxy Wortmannin]
- efficacy [1]: -59.9%
- AC50 cell viability [2]: 20.9 µM

SMILES: COC[C@H]1OC(=O)C2=COC3=C2[C@@]1(C)\C4=C(C5CCC(=O)[C@@]5(C)C[C@H]4OC(C)=O)/C3=O (stereo partly specified) [17_-hydroxy Wortmannin]
- efficacy [1]: -43.9%
- AC50 cell viability [2]: 0.468 µM

SMILES: CC1=CC=C2\N=C/3N(CC[C@@]3(O)C(=O)C2=C1)C4=CC=CC=C4 [(-)-Blebbistatin]
- efficacy [1]: -35.7%
- AC50 cell viability [2]: 0.132 µM

SMILES: Cc1cc2c(C(C)C)c(O)c(O)c(C=O)c2c(O)c1-c1c(C)cc2c(C(C)C)c(O)c(O)c(C=O)c2c1O [(-)-Gossypol]
- efficacy [1]: -115%
- AC50 cell viability [2]: 16.6 µM

SMILES: Cc1nc(NC(=O)N2CCC[C@H]2C(N)=O)sc1-c1csc(C(C)(C)C)n1 [A-66]
- efficacy [1]: -33%
- AC50 cell viability [2]: 1.86 µM

SMILES: Nc1ncnc2nc(-c3ccc(N4CCOCC4)nc3)cc(-c3cccc(Br)c3)c12 [ABT-702]
- efficacy [1]: -53%
- AC50 cell viability [2]: 20.9 µM

SMILES: CN(C)CC[C@H](CSc1ccccc1)Nc1ccc([S+](=O)([O-])NC(=O)c2ccc(N3CCN(Cc4ccccc4-c4ccc(Cl)cc4)CC3)cc2)cc1[N+](=O)[O-] [ABT-737]
- efficacy [1]: -68.4%
- AC50 cell viability [2]: 20.9 µM

SMILES: Cc1c(NC(=O)OC[C@@H]2COCCN2)cn2ncnc(Nc3ccc4c(cnn4Cc4cccc(F)c4)c3)c12 [AC-480]
- efficacy [1]: -82.6%
- AC50 cell viability [2]: 20.9 µM

SMILES: CC(=O)NC(C)c1ccc(Oc2ccc(OC(C)C)cc2)cc1 (stereo unspecified) [ACC1 BMS]
- efficacy [1]: -47.8%
- AC50 cell viability [2]: 17.1 µM

SMILES: Cc1ccc(Nc2nnc(Cc3ccncc3)c3ccccc23)cc1Br [ACC-789]
- efficacy [1]: -84.8%
- AC50 cell viability [2]: 20.9 µM

SMILES: O=C(CCCCCCNC(=O)c1cnc(N(c2ccccc2)c2ccccc2Cl)nc1)NO [ACY-241]
- efficacy [1]: -86.2%
- AC50 cell viability [2]: 5.9 µM

SMILES: O=C(NO)c1cnc(NC2(c3ccccc3)CC2)nc1 [ACY-738]
- efficacy [1]: -79.1%
- AC50 cell viability [2]: 3.32 µM

SMILES: O=C(NO)c1cnc(NC2(c3cccc(F)c3)CCCCC2)nc1 [ACY-775]
- efficacy [1]: -75.6%
- AC50 cell viability [2]: 16.6 µM

SMILES: O=C(CCCCCCNC(=O)c1cnc(N(c2ccccc2)c2ccccc2)nc1)NO [ACY-1215]
- efficacy [1]: -93.5%
- AC50 cell viability [2]: 7.42 µM

SMILES: Nc1ncnc2c1c(-c1cccc(OCc3ccccc3)c1)cn2[C@H]1C[C@H](CN2CCCC2)C1 [ADW-742]
- efficacy [1]: -84.3%
- AC50 cell viability [2]: 16.6 µM

SMILES: CCN1CCN(Cc2ccc(-c3cc4c(N[C@H](C)c5ccccc5)ncnc4[nH]3)cc2)CC1 [AEE-788]
- efficacy [1]: -97.5%
- AC50 cell viability [2]: 16.6 µM

SMILES: CCOC(CN1C(=O)[C@](CC(=O)Nc2ccc(C)cc2)(NC(=O)Nc2ccc(C)cc2)c2ccccc21)OCC [AG-041R]
- efficacy [1]: -78.5%
- AC50 cell viability [2]: 23.5 µM

SMILES: CC(C)(C)c1cc(C=C(C#N)C#N)cc(Br)c1O [AG-1024]
- efficacy [1]: -86.1%
- AC50 cell viability [2]: 26.3 µM
